# System: HCV replication in ET (Huh-lucubineo-ET) cell line
# Assay: Replicon Assay (HCV replicon luciferase, ET cell line)
# Assay type: cell-based
# Conditions: Hepatitis C virus; tested at 10 μM; ET (Huh-lucubineo-ET) replicon cells; luciferase activity measured 48-72 hours later; relative to no compound control
# Protocol: A cell line, ET (Huh-lucubineo-ET) was used for screening of compounds of the present invention for inhibiting HCV replication. The ET cell line was stably transfected with RNA transcripts harboring a I389luc-ubi-neo/NS3-3′/ET; replicon with firefly luciferase-ubiquitin-neomycin phosphotransferase fusion protein and EMCV-IRES driven NS3-5B polyprotein containing the cell culture adaptive mutations (E1202G; T1280I; K1846T) (Krieger at al, 2001 and unpublished). The ET cells were grown in DMEM (Dulbeco's Modified Eagle's Medium), supplemented with 10% fetal calf serum, 2 mM Glutamine, Penicillin (100 IU/mL)/Streptomycin (100 μg/mL), 1× nonessential amino acids, and 250 μg/mL G418 (“Geneticin”). They were all available through Life Technologies (Bethesda, Md.). The cells were plated at 0.5-1.0×10^4 cells/well in the 96 well plates and incubated for 24 hrs before adding testing compounds. Then the compounds were added to the cells to achieve a final concentration of 0.1 nM to 50 μM and a final DMSO concentration of 0.5%. Luciferase activity were measured 48-72 hours later by adding a lysis buffer and the substrate (Catalog number Glo-lysis buffer E2661 and Bright-Glo luciferase system E2620 Promega, Madison, Wis.). Cells should not be too confluent during the assay. Percent inhibition of replication was plotted relative to no compound control. Under the same condition, cytotoxicity of the compounds was determined using cell proliferation reagent, WST-1 (Roche, Germany). The compounds showing antiviral activities, but no significant cytotoxicities were chosen to determine EC50 and TC50. For these determinations, a 10 point 2-fold serial dilution for each compound was used, which spans a concentration range of 1000 fold. EC50 and similarly TC50 values were calculated by fitting % inhibition at each concentration to the following equation:
# % inhibition=100%/[(IC50/[I])^b+1]
# where b is Hill's coefficient.
# In some preferred embodiments compounds of Formula I will have a % inhibition of at least 20% when tested at 10 μM. In other embodiments the compounds of Formula I will have a % inhibition of at least 50% when tested at 10 μM.
row,Compound,inhibition at 10 µM
1,"O=C(Nc1ccc(-c2ccc3nc([C@@H]4CCCN4C(=O)OCc4ccccc4)[nH]c3c2)cc1)C1CC1 [Compound 4058, (S)-2-{6-[4-(Cyclopropanecarbonyl-amino)-phenyl]-1H-benzoimidazol-2-yl}-pyrrolidine-1-carboxylic acid benzyl ester]",97.9%
2,"O=C(NCc1ccc(-c2ccc3nc([C@@H]4CCCN4C(=O)OCc4ccccc4)[nH]c3c2)cc1)C1CC1 [Compound 4038, (S)-2-(6-{4-[(Cyclopropanecarbonyl-amino)-methyl]-phenyl}-1H-benzoimidazol-2-yl)-pyrrolidine-1-carboxylic acid benzyl ester]",97%
3,"O=C(Nc1cccc(-c2ccc([C@@H]3CCCN3C(=O)OCc3ccccc3)cc2)c1)C1CC1 (stereo in doubt) [Compound 4009, 2-[3′-(Cyclopropanecarbonyl-amino)-biphenyl-4-yl]-pyrrolidine-1-carboxylic acid benzyl ester]",31.7%
4,"O=C(NC1CC1)c1ccc(-c2ccc3nc([C@@H]4Cc5ccccc5N4C(=O)OCc4ccccc4)[nH]c3c2)cc1 [Compound 4010, (S)-2-[6-(4-Cyclopropylcarbamoyl-phenyl)-1H-benzoimidazol-2-yl]-2,3-dihydro-indole-1-carboxylic acid benzyl ester]",96.8%
5,"O=C(NC1CC1)c1ccc(-c2ccc3[nH]c([C@@H]4CSC(c5ccncc5)N4C(=O)OCc4ccccc4)nc3c2)cc1 (stereo in doubt) [Compound 4006, (S)-4-[5-(4-Cyclopropylcarbamoyl-phenyl)-1H-benzoimidazol-2-yl]-2-pyridin-4-yl-thiazolidine-3-carboxylic acid benzyl ester]",99.8%
6,"O=C(Nc1ccc(-c2ccc([C@@H]3CCCN3C(=O)OCc3ccccc3)cc2)cc1)C1CC1 (stereo in doubt) [Compound 4026, 2-[4′-(Cyclopropanecarbonyl-amino)-biphenyl-4-yl]-pyrrolidine-1-carboxylic acid benzyl ester]",47.6%
